# Test results as given in patent US20260092074A1, “Annelated Pyridines as Steroidogenesis Inhibitors, Preparation Method and Use Thereof” (Guangzhou Vinnocent Pharmaceutical Limited, priority 2022, published 2026).
# Key:
# human CYP11B2 = target: T1, human CYP11B2 (Homo sapiens, UniProt P19099); assay: Inhibition of hCYP11B2 in transfected V79 cells; assay type: cell-based; settings: hamster V79 cells expressing human CYP11B2; substrate 11-deoxycorticosterone 200 nM
# T1 construct: expressed in transfected cells
# T1 sequence (P19099 25-503): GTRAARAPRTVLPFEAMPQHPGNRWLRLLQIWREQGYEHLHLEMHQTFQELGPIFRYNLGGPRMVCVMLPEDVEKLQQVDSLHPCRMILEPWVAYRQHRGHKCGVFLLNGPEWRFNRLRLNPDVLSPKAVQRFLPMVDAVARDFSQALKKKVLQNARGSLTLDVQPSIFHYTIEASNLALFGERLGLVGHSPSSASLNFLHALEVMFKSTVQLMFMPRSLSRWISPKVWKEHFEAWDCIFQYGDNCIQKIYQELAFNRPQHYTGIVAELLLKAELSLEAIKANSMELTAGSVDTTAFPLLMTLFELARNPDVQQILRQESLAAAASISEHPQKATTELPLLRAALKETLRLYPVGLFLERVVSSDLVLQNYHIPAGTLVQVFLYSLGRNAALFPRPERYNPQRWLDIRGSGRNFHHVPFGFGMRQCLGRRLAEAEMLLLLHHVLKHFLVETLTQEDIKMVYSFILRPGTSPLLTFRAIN
# How it was run: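 The substrate (200 nM, 30 min) was added after a 2 hour compound pre-incubation in lentivirus-transduced V79 cells stably expressing human CYP11B2 plus rat NADPH-P450 reductase.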
# human CYP11B1 = target: T2, human CYP11B1 (Homo sapiens, UniProt P15538); assay: Inhibition of hCYP11B1 in transfected V79 cells; assay type: cell-based; settings: hamster V79 cells expressing human CYP11B1; substrate 11-deoxycortisol 200 nM
# T2 construct: expressed in transfected cells
# T2 sequence (P15538 25-503): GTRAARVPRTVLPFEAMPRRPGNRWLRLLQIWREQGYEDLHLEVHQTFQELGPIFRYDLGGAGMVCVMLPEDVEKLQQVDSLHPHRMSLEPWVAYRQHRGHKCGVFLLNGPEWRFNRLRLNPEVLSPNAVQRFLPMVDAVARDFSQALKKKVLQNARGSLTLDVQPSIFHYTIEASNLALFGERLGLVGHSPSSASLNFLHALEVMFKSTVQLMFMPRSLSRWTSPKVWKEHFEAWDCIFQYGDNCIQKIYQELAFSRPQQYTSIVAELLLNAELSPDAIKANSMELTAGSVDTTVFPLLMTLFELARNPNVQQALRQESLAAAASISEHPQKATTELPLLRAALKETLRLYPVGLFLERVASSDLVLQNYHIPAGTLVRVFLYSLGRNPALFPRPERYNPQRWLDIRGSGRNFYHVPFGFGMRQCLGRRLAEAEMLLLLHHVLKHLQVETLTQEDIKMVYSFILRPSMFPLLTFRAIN
# How it was run: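 Reactions started with 200 nM 11-deoxycortisol, ran for 30 min and were stopped with ethyl acetate, after a 2 h compound preincubation. The host was stably transfected V79 hamster cells carrying human CYP11B1 plus rat P450 reductase. Percent inhibition, from LC-MS/MS or HPLC (260 nm) quantitation of substrate and product, gave the IC50.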
Compound,IC50 (human CYP11B2) [nM],IC50 (human CYP11B1) [nM]
N#Cc1ccc(-c2cncc3c2OCCN3C(=O)CCc2cccc(C(F)(F)F)c2)cc1 [O54],6.9,119
"N#Cc1ccc(-c2cncc3c2OCCN3C(=O)C2CCN(S(=O)(=O)c3cccc(F)c3)CC2)cc1 [O55, 4-(4-(1-((3-Fluorophenyl)sulfonyl)piperidine-4-carbonyl)-3,4-dihydro-2H-pyrido[4,3-b][1, 4]oxazin-8-yl)benzonitrile]",2.1,114
"N#Cc1ccc(-c2cncc3c2OCCN3C(=O)C2CNC2)cc1 [O56, 4-(4-(Azetidine-3-carbonyl)-3,4-dihydro-2H-pyrido[4,3-b][1,4]oxazin-8-yl)benzonitrile]",5.1,292
"N#Cc1ccc(-c2cncc3c2OCCN3C(=O)C2CN(S(=O)(=O)c3cccc([N+](=O)[O-])c3)C2)cc1 [O63, 4-(4-(1-((3-Nitrophenyl)sulfonyl)azetidine-3-carbonyl)-3,4-dihydro-2H-pyrido[4,3-b][1,4]oxazin-8-yl)benzonitrile]",2,181
"N#Cc1ccc(-c2cncc3c2OCCN3C(=O)C2CN(S(=O)(=O)c3cccs3)C2)cc1 [O64, 4-(4-(1-(Thiophen-2-ylsulfonyl)azetidine-3-carbonyl)-3,4-dihydro-2H-pyrido[4,3-b][1,4]oxazin-8-yl)benzonitrile]",0.5,63
"COc1cccc(S(=O)(=O)N2CC(C(=O)N3CCOc4c(-c5ccc(C#N)cc5)cncc43)C2)c1 [O66, 4-(4-(1-((3-Methoxyphenyl)sulfonyl)azetidine-3-carbonyl)-3,4-dihydro-2H-pyrido[4,3-b][1, 4]oxazin-8-yl)benzonitrile]",4.5,495
"N#Cc1ccc(-c2cncc3c2OCCN3C(=O)C2CN(S(=O)(=O)c3cccc(C#N)c3)C2)cc1 [O68, 3-((3-(8-(4-Cyanophenyl)-3,4-dihydro-2H-pyrido[4,3-b][1,4]oxazine-4-carbonyl)azetidin-1-yl)sulfonyl)benzonitrile]",0.7,52
"N#Cc1ccc(-c2cncc3c2OCCN3C(=O)C23CC(Nc4cccc(F)c4)(C2)C3)cc1 [O71, 4-(4-(3-((3-Fluorophenyl)amino)bicyclo[1.1.1]pentane-1-carbonyl)-3,4-dihydro-2H-pyrido[4,3-b][1,4]oxazin-8-yl)benzonitrile]",39,2170
"N#Cc1ccc(-c2cncc3c2OCCN3C(=O)c2ccc(Oc3ccc(F)cc3)s2)cc1 [O72, 4-(4-(5-(4-Fluorophenoxy)thiophene-2-carbonyl)-3,4-dihydro-2H-pyrido[4,3-b][1,4]oxazin-8-yl)benzonitrile]",3.6,292
"N#Cc1ccc(-c2cncc3c2OCCN3C(=O)N2CC3(CN(Cc4cccc(F)c4)C3)C2)cc1 [O73, 4-(4-(6-(3-Fluorobenzyl)-2,6-diazaspiro[3.3]heptane-2-carbonyl)-3,4-dihydro-2H-pyrido[4,3-b][1,4]oxazin-8-yl)benzonitrile]",45,3470
"N#Cc1ccc(-c2cncc3c2OCCN3C(=O)C2CN(S(=O)(=O)c3cccc(C#N)c3)C2)cc1 [O74, 3-((3-(8-(4-Cyanophenyl)-3,4-dihydro-2H-pyrido[4,3-b][1,4]oxazine-4-carbonyl)azetidin-1-yl)sulfonyl)benzonitrile]",1.3,99

# Results, then the compound that gave them:
IC50 (human CYP11B2) [nM],IC50 (human CYP11B1) [nM],Compound
1.6,102,"N#Cc1ccc(-c2cncc3c2OCCN3C(=O)C2CN(C(=O)c3ccc(F)cc3)C2)cc1 [O57, 4-(4-(1-(4-Fluorobenzoyl)azetidine-3-carbonyl)-3,4-dihydro-2H-pyrido[4,3-b][1,4]oxazin-8-yl)benzonitrile]"
1.9,132,"N#Cc1ccc(-c2cncc3c2OCCN3C(=O)C2CN(C(=O)c3cccc(F)c3)C2)cc1 [O58, 4-(4-(1-(3-Fluorobenzoyl)azetidine-3-carbonyl)-3,4-dihydro-2H-pyrido[4,3-b][1,4]oxazin-8-yl)benzonitrile]"
2.8,276,"N#Cc1ccc(-c2cncc3c2OCCN3C(=O)CNC(=O)c2ccc(F)cc2)cc1 [O59, N-(2-(8-(4-Cyanophenyl)-2,3-dihydro-4H-pyrido[4,3-b][1,4]oxazin-4-yl)-2-oxoethyl)-4-fluorobenzamide]"
0.6,2.5,"N#Cc1ccc(-c2cncc3c2OCCN3C(=O)C2CN(S(=O)(=O)c3ccc(F)cc3)C2)cc1 [O60, 4-(4-(1-((4-Fluorophenyl)sulfonyl)azetidine-3-carbonyl)-3,4-dihydro-2H-pyrido[4,3-b][1,4]oxazin-8-yl)benzonitrile]"
0.51,3.7,"N#Cc1ccc(-c2cncc3c2OCCN3C(=O)C2CN(S(=O)(=O)c3cccc(F)c3)C2)cc1 [O61, 4-(4-(1-((3-Fluorophenyl)sulfonyl)azetidine-3-carbonyl)-3,4-dihydro-2H-pyrido[4,3-b][1,4]oxazin-8-yl)benzonitrile]"
3.3,178,"N#Cc1ccc(-c2cncc3c2OCCN3C(=O)C2CN(S(=O)(=O)c3ccc([N+](=O)[O-])cc3)C2)cc1 [O62, 4-(4-(1-((4-Nitrophenyl)sulfonyl)azetidine-3-carbonyl)-3,4-dihydro-2H-pyrido[4,3-b][1,4]oxazin-8-yl)benzonitrile]"
2.5,521,"Cc1ccc(S(=O)(=O)N2CC(C(=O)N3CCOc4c(-c5ccc(C#N)cc5)cncc43)C2)cc1 [O65, 4-(4-(1-Tosylazetidine-3-carbonyl)-3,4-dihydro-2H-pyrido[4,3-b][1,4]oxazin-8-yl)benzonitrile]"
2.7,496,"COc1ccc(S(=O)(=O)N2CC(C(=O)N3CCOc4c(-c5ccc(C#N)cc5)cncc43)C2)cc1 [O67, 4-(4-(1-((4-Methoxyphenyl)sulfonyl)azetidine-3-carbonyl)-3,4-dihydro-2H-pyrido[4,3-b][1, 4]oxazin-8-yl)benzonitrile]"
2.1,57,"N#Cc1ccc(-c2cncc3c2OCCN3C(=O)C2CN(S(=O)(=O)c3ccc(C#N)cc3)C2)cc1 [O69, 4-((3-(8-(4-Cyanophenyl)-3,4-dihydro-2H-pyrido[4,3-b][1,4]oxazine-4-carbonyl)azetidin-1-yl)sulfonyl)benzonitrile]"
1.4,31.6,"Cc1cccc(S(=O)(=O)N2CC(C(=O)N3CCOc4c(-c5ccc(C#N)cc5)cncc43)C2)c1 [O70, 4-(4-(1-(m-Tolylsulfonyl)azetidine-3-carbonyl)-3,4-dihydro-2H-pyrido[4,3-b][1,4]oxazin-8-yl)benzonitrile]"
1.3,89,"N#Cc1ccc(-c2cncc3c2OCCN3C(=O)C2CN(S(=O)(=O)c3ccc(C#N)cc3)C2)cc1 [O75, 4-((3-(8-(4-Cyanophenyl)-3,4-dihydro-2H-pyrido[4,3-b][1,4]oxazine-4-carbonyl)azetidin-1-yl)sulfonyl)benzonitrile]"
1.6,146,"COc1cccc(C(=O)N2CC(C(=O)N3CCOc4c(-c5ccc(C#N)cc5)cncc43)C2)c1 [O76, 4-(4-(1-(3-Methoxybenzoyl)azetidine-3-carbonyl)-3,4-dihydro-2H-pyrido[4,3-b][1,4]oxazin-8-yl)benzonitrile]"
2,195,"COc1ccc(C(=O)N2CC(C(=O)N3CCOc4c(-c5ccc(C#N)cc5)cncc43)C2)cc1 [O77, 4-(4-(1-(4-Methoxybenzoyl)azetidine-3-carbonyl)-3,4-dihydro-2H-pyrido[4,3-b][1,4]oxazin-8-yl)benzonitrile]"
2.1,183,"N#Cc1ccc(-c2cncc3c2OCCN3C(=O)C2CN(Cc3cccc(F)c3)C2)cc1 [O78, 4-(4-(1-(3-Fluorobenzyl)azetidine-3-carbonyl)-3,4-dihydro-2H-pyrido[4,3-b][1,4]oxazin-8-yl)benzonitrile]"
2.9,137,"N#Cc1ccc(-c2cncc3c2OCCN3C(=O)C2CN(Cc3ccc(F)cc3)C2)cc1 [O79, 4-(4-(1-(4-Fluorobenzyl)azetidine-3-carbonyl)-3,4-dihydro-2H-pyrido[4,3-b][1,4]oxazin-8-yl)benzonitrile]"
